The target of this test is T1, Caspase-1 (Homo sapiens, UniProt P29466).
T1 sequence (P29466 whole entry): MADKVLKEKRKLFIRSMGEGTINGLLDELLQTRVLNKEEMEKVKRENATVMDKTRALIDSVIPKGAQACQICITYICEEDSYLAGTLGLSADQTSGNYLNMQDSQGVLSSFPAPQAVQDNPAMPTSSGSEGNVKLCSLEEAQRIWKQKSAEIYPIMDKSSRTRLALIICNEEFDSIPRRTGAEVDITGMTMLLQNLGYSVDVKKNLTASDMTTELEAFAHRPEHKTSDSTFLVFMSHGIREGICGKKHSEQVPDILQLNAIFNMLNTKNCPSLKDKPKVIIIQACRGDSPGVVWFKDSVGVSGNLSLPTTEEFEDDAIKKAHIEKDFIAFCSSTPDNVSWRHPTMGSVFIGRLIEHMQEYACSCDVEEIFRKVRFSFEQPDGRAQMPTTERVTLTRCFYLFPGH
In words: Reversible inhibition of recombinant human IL-1 beta converting enzyme.

Structures are written as SMILES.

In general, Ki refers to a dissociation constant, usually derived from enzyme kinetics or from competition with a known ligand.

Consider `CC(=O)N[C@@H](Cc1ccc(O)cc1)C(=O)N[C@H](C(=O)N[C@@H](C)C(=O)N[C@@H](CC(=O)O)C(=O)COc1ccccc1)C(C)C`, for which the Ki was found to be 1.1 nM.
Turning to `O=C(O)C[C@H](NC(=O)Cn1c(Cc2ccccc2)ccc(NC(=O)c2cccc3ccccc23)c1=O)C(=O)COc1ccccc1`, the Ki turned out to be 10 nM.
The figure for `CCC(C(=O)N[C@@H](CC(=O)O)C(=O)COc1ccccc1)n1cccc(NC(=O)c2ccc3ccccc3c2)c1=O` (some centres not stated) is 1.4 nM; for `O=C(O)C[C@H](NC(=O)C(c1ccccc1)n1cccc(NC(=O)c2ccc3ccccc3c2)c1=O)C(=O)COc1ccccc1` (some centres not stated) it is 1.3 nM.
The same measure for `CCCC(C(=O)N[C@@H](CC(=O)O)C(=O)COc1ccccc1)n1c(-c2ccccc2)ccc(NC(=O)c2cccc3ccccc23)c1=O` (some centres not stated): 7200 nM; for `COCC(C(=O)N[C@@H](CC(=O)O)C(=O)COc1ccccc1)n1cccc(NC(=O)c2ccc3ccccc3c2)c1=O` (some centres not stated): 7.1 nM.
The same measure for `CCc1ccc(NC(=O)c2cccc3ccccc23)c(=O)n1CC(=O)N[C@@H](CC(=O)O)C(=O)COc1ccccc1`: 40 nM; for `O=C(O)C[C@H](NC(=O)C(c1ccccn1)n1cccc(NC(=O)c2ccc3ccccc3c2)c1=O)C(=O)COc1ccccc1` (some centres not stated): 2 nM.
On to `Cc1ccc(NC(=O)OCc2ccccc2)c(=O)n1CC(=O)N[C@@H](CC(=O)O)C(=O)COc1ccccc1`, for which the Ki stood at 590 nM.
The figure for `CCC(C(=O)N[C@@H](CC(=O)O)C(=O)COc1ccccc1)n1cccc(NC(=O)c2cccc3ccccc23)c1=O` (some centres not stated) is 2.2 nM.
In the case of `CC(C)[C@H](NC(=O)c1ccc2ccccc2c1)C(=O)N[C@@H](C)C(=O)NC(CC(=O)O)C(=O)COc1ccccc1` (some centres not stated), the Ki amounted to 0.15 nM.
The figure for `O=C(O)C[C@H](NC(=O)C(c1ccccc1)n1cccc(NC(=O)c2cccc3ccccc23)c1=O)C(=O)COc1ccccc1` (some centres not stated) is 1.8 nM; for `CCCc1ccc(NC(=O)c2cccc3ccccc23)c(=O)n1CC(=O)N[C@@H](CC(=O)O)C(=O)COc1ccccc1` it is 68 nM.
The same measure for `CC(C)C(C(=O)N[C@@H](CC(=O)O)C(=O)COc1ccccc1)n1cccc(NC(=O)c2cccc3ccccc23)c1=O` (some centres not stated): 21 nM.
For the compound `Cc1ccc(NC(=O)c2ccccc2)c(=O)n1CC(=O)N[C@@H](CC(=O)O)C(=O)COc1ccccc1`, the Ki came out at 530 nM.
Take `CCCCc1ccc(NC(=O)c2cccc3ccccc23)c(=O)n1CC(=O)N[C@@H](CC(=O)O)C(=O)COc1ccccc1`: the inhibition constant Ki worked out at 16 nM.
Turning to `O=C(O)C[C@H](NC(=O)Cn1c(-c2ccccc2)ncc(NC(=O)c2cccc3ccccc23)c1=O)C(=O)COc1ccccc1`, the Ki was determined as 66 nM.
The same measure for `CCCCc1ncc(NC(=O)c2cccc3ccccc23)c(=O)n1CC(=O)N[C@@H](CC(=O)O)C(=O)COc1ccccc1`: 46 nM.
The same measure for `CCCCC(C(=O)N[C@@H](CC(=O)O)C(=O)COc1ccccc1)n1cccc(NC(=O)c2cccc3ccccc23)c1=O` (some centres not stated): 5.3 nM; for `O=C(O)C[C@H](NC(=O)Cn1cccc(NC(=O)c2cccc3ccccc23)c1=O)C(=O)COc1ccccc1`: 39 nM; for `Cc1ccc(NC(=O)c2cccc3ccccc23)c(=O)n1CC(=O)N[C@@H](CC(=O)O)C(=O)COc1ccccc1`: 95 nM.
The figure for `Cc1ccc(NC(=O)c2ccc3ccccc3c2)c(=O)n1CC(=O)N[C@@H](CC(=O)O)C(=O)COc1ccccc1` is 160 nM.
Turning to `CCCC(C(=O)N[C@@H](CC(=O)O)C(=O)COc1ccccc1)n1cccc(NC(=O)c2cccc3ccccc23)c1=O` (some centres not stated), the Ki stood at 1.8 nM.
For the compound `CC(C(=O)N[C@@H](CC(=O)O)C(=O)COc1ccccc1)n1cccc(NC(=O)c2ccc3ccccc3c2)c1=O` (some centres not stated), the inhibition constant Ki is 14 nM.
The figure for `CCCC(C(=O)N[C@@H](CC(=O)O)C(=O)COc1ccccc1)n1c(C)ccc(NC(=O)c2ccc3ccccc3c2)c1=O` (some centres not stated) is 2200 nM.
The figure for `CC(C)[C@H](NC(=O)c1ccc2ccccc2c1)C(=O)N1CCCC[C@H]1C(=O)NC(CC(=O)O)C(=O)COc1ccccc1` (some centres not stated) is 0.15 nM.
The figure for `CCCCCCc1ccc(NC(=O)c2cccc3ccccc23)c(=O)n1CC(=O)N[C@@H](CC(=O)O)C(=O)COc1ccccc1` is 40 nM; for `C=CCC(C(=O)N[C@@H](CC(=O)O)C(=O)COc1ccccc1)n1cccc(NC(=O)c2ccc3ccccc3c2)c1=O` (some centres not stated) it is 1.5 nM.
For `CC(C(=O)N[C@@H](CC(=O)O)C(=O)COc1ccccc1)n1cccc(NC(=O)c2cccc3ccccc23)c1=O` (some centres not stated), the inhibition constant (Ki) was 7 nM.
The figure for `O=C(O)C[C@H](NC(=O)Cn1cccc(NC(=O)c2ccc3ccccc3c2)c1=O)C(=O)COc1ccccc1` is 45 nM; for `O=C(O)C[C@H](NC(=O)Cn1c(-c2ccccc2)ccc(NC(=O)c2cccc3ccccc23)c1=O)C(=O)COc1ccccc1` it is 25 nM.
In the case of `CC(C)[C@H](NC(=O)c1ccc2ccccc2c1)C(=O)N1CCC[C@H]1C(=O)NC(CC(=O)O)C(=O)COc1ccccc1` (some centres not stated), the Ki is 0.2 nM.

These data come from ChEMBL document CHEMBL1129873, “PYRIDONE-BASED PEPTIDOMIMETIC INHIBITORS OF INTERLEUKIN-1-CONVERTING ENZYME (ICE)” (Bioorg Med Chem Lett, 1997).
